The source of these data is the kinase profiling compilation of Christmann-Franck et al. (2016).

Usually Kd stands for the concentration at which binding is half-saturated.

Common to all, as to test: KINOMEscan competition binding
In assay [1] the target is ABL1 (human), P00519 [F317I].
Assay [2] addresses CDC42BPB (human) (UniProt Q9Y5S2).
The target in assay [3] is CDK14 (human) (UniProt O94921).
Assay [4] deals with CDK16 (human) (UniProt Q00536).
The target in assay [5] is CDK17 (human) (UniProt Q00537).
Assay [6] addresses CDK18 (human) (UniProt Q07002).
Assay [7] concerns the target CDKL3 (human) (UniProt Q8IVW4).
The target in assay [8] is FER (human) (UniProt P16591).
The target of assay [9] is JAK1 JH1 catalytic (human) (UniProt P23458).
Assay [10] concerns the target MAP2K3 (human) (UniProt P46734).
Assay [11] concerns the target MAP3K12 (human) (UniProt Q12852).
Assay [12] addresses MAP4K3 (human) (UniProt Q8IVH8).
Assay [13] has as its target MAPK15 (human) (UniProt Q8TD08).
In assay [14] the target is MERTK (human) (UniProt Q12866).
The target of assay [15] is PAK2 (human) (UniProt Q13177).
Assay [16] concerns the target PIK3CA (human), P42336 [E542K].
Assay [17] deals with PRKAA1 (human) (UniProt Q13131).
Assay [18] concerns the target RPS6KA2 KD2 (human) (UniProt Q15349).
Assay [19] has as its target SRMS (human) (UniProt Q9H3Y6).
In assay [20] the target is STK4 (human) (UniProt Q13043).
Assay [21] addresses TSSK1B (human) (UniProt Q9BXA7).
Assay [22] concerns the target TYK2 JH2 pseudokinase (human) (UniProt P29597).
Assay [23] deals with TYRO3 (human) (UniProt Q06418).

RPS6KA2 KD2 (human), sequence (Q15349 whole entry, looked up): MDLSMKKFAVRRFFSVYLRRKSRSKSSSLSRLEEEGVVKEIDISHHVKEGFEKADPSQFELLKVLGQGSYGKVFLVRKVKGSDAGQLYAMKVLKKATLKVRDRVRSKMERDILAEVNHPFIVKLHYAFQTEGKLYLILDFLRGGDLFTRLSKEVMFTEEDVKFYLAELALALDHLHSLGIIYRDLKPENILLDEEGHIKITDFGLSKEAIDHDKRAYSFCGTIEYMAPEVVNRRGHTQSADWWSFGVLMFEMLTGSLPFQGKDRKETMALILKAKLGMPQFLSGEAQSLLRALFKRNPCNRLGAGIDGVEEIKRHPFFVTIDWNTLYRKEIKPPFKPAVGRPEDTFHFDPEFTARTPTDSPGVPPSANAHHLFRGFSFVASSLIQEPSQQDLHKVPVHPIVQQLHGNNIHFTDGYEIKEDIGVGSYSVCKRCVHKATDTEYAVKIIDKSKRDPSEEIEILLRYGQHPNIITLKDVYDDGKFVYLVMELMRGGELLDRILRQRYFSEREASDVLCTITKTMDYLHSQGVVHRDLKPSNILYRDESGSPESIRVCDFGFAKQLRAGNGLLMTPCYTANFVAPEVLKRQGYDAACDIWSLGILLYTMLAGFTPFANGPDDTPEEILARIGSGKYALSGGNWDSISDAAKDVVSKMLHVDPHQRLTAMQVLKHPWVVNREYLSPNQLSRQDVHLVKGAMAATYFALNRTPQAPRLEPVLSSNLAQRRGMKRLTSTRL
CDC42BPB (human), sequence (Q9Y5S2 whole entry, looked up): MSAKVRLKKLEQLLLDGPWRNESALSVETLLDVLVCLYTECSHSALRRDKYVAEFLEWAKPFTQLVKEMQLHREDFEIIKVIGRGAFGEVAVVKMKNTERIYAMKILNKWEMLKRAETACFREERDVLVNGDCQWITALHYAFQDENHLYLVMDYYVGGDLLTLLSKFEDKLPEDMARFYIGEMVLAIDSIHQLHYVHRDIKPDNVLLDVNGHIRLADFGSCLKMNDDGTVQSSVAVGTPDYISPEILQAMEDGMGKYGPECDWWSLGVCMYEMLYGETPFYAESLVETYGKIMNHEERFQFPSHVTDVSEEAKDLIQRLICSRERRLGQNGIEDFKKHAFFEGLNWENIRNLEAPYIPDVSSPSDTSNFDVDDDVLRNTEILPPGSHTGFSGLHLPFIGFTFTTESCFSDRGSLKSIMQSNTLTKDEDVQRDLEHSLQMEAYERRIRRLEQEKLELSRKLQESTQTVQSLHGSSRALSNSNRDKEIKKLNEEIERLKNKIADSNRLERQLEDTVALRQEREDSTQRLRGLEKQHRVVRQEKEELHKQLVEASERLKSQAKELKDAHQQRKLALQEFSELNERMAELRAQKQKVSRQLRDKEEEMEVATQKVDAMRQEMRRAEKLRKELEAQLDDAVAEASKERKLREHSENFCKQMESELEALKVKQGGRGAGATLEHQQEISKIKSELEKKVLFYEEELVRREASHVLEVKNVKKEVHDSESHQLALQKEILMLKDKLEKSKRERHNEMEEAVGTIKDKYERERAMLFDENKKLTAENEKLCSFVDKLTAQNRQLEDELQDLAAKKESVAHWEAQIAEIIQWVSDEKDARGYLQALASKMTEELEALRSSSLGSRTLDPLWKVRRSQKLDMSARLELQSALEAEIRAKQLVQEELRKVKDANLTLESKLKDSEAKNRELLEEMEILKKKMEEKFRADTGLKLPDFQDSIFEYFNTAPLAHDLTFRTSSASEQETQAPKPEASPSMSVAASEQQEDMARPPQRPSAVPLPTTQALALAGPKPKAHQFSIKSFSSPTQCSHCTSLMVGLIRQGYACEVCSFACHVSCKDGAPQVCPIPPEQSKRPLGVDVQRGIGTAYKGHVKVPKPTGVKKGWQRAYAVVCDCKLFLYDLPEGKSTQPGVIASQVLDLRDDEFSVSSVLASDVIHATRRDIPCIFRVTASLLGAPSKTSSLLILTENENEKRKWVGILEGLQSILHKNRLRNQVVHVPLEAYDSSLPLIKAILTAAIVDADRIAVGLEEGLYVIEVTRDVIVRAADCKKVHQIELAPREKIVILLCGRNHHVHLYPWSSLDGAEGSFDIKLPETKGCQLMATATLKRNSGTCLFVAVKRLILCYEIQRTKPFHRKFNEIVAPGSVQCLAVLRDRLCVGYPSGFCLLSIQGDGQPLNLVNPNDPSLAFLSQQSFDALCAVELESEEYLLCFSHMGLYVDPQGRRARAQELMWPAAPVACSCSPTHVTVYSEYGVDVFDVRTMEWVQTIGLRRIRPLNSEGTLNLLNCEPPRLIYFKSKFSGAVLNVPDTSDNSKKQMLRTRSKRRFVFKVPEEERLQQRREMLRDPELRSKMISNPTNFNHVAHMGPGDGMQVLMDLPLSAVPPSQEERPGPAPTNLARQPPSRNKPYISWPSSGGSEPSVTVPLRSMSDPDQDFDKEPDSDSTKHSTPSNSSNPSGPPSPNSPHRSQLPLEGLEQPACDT
STK4 (human), sequence (Q13043 whole entry, looked up): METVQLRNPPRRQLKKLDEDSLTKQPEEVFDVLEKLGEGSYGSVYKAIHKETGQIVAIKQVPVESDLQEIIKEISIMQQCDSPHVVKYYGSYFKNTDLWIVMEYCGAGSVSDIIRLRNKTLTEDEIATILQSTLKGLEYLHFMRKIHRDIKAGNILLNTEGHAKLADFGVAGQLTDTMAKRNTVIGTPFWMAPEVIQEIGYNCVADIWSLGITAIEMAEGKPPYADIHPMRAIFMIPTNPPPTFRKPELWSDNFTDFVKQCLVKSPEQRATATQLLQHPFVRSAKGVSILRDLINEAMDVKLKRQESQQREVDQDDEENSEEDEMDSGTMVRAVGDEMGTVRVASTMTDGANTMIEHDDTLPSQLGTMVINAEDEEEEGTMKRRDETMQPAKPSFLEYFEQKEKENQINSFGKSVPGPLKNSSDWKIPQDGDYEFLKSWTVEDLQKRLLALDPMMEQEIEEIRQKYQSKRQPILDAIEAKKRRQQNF
MAP3K12 (human), sequence (Q12852 whole entry, looked up): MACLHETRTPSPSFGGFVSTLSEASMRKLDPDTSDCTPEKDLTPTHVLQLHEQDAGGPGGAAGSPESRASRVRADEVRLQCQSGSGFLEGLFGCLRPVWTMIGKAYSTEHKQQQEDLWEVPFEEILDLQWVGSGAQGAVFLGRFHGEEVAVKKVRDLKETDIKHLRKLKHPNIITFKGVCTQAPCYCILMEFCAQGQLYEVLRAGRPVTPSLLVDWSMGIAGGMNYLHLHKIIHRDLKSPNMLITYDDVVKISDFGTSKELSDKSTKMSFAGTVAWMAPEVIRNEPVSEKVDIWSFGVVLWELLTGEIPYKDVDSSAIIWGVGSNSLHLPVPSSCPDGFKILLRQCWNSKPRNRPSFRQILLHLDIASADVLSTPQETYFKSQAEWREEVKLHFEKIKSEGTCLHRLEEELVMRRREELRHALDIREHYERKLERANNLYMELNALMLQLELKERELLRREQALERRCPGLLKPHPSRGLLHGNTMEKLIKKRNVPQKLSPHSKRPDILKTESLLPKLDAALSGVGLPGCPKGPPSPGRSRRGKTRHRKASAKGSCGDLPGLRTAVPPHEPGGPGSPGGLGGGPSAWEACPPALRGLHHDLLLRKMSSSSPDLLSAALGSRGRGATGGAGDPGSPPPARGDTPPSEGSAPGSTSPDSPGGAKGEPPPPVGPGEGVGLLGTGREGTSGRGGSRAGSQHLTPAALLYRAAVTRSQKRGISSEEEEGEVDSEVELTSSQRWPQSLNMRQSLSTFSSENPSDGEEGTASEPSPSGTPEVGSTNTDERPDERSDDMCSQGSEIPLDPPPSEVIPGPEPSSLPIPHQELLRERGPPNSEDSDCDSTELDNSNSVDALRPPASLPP
CDK18 (human), sequence (Q07002 whole entry, looked up): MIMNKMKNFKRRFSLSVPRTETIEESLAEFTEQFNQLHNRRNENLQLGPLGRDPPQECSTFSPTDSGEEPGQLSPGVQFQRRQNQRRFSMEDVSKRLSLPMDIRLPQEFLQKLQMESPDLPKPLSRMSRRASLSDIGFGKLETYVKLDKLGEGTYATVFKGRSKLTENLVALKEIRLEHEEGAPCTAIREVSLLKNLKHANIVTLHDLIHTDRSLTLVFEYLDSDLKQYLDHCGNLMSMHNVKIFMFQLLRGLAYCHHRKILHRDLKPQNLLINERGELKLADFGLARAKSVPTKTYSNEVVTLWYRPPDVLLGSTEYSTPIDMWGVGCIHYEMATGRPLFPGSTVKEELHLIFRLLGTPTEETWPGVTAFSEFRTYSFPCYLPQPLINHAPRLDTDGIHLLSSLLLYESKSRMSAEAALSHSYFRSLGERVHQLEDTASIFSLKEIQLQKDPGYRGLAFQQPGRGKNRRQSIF
TSSK1B (human), sequence (Q9BXA7 whole entry, looked up): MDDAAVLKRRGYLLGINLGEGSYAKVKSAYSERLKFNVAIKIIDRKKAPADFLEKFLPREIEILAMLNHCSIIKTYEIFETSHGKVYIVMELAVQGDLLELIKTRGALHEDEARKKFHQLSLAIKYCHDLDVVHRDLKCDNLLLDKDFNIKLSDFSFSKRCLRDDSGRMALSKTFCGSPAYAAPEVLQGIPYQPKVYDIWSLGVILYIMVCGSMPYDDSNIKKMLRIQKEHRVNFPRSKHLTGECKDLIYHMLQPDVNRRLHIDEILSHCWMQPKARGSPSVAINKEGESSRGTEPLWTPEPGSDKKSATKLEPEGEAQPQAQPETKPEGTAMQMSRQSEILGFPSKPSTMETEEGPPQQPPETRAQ
MAP2K3 (human), sequence (P46734 whole entry, looked up): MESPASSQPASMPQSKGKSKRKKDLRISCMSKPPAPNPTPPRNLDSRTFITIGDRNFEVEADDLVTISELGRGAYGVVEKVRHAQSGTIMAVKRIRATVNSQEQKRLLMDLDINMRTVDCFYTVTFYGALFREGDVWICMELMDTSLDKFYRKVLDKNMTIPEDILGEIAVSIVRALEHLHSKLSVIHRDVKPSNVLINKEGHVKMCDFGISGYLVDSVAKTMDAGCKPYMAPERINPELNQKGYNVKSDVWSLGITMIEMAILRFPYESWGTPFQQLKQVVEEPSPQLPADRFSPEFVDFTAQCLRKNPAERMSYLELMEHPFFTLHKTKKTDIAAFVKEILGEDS

As for `COc1cc2ncnc(Oc3cccc(NC(=O)Nc4cc(C(C)(C)C(F)(F)F)on4)c3)c2cc1OC`, the equilibrium dissociation constant (Kd) was 2.5 nM in assay [1]; 2000 nM in [2]; 110 nM in assay [3]; 1600 nM in [4]; 630 nM in [5]; 1100 nM in assay [6]. Further, the dissociation constant Kd in [7] was 2000 nM; in assay [8], 200 nM; in [9] it was 29 µM; in assay [10] it was 31 µM; in assay [11], 35 µM; in [12] it was 2300 nM. Also, the dissociation constant Kd in [13] was 94 nM; in assay [14], 1300 nM; in [15] it was 34 µM; in assay [16] it was 27 µM; in assay [17], 8.7 µM; in assay [18] it was 33 µM. In addition, the dissociation constant Kd was 3000 nM in assay [19]; 30 µM in assay [20]; 26 µM in assay [21]; 16 µM in [22]; 1500 nM in assay [23].
